# Laboratory results from paper PMC11071649, “Synthesis and Selective Anticancer Activity Evaluation of 2-phenylacrylonitrile Derivatives as Tubulin Inhibitors” (Current Medicinal Chemistry, 2024).
# “Also recorded” adds a separate entry of the source. Marks after values point to notes of the source that are not given here.
# How the values were obtained:
# [1] = tested on: diffuse large B-cell lymphoma SU-DHL-10 cell; test: MTT anti-proliferative assay, SU-DHL-10; format: cell-based, human; conditions: for IC50: Homo sapiens, SU-DHL10, MTT, 48 h, read-out: IC50 SU-DHL-10
# Procedure, shortened: (§1)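 Cells grown in DMEM supplemented with FBS were seeded in 96-well format and treated with the analogs. Cytotoxicity was scored by MTT as reduction of net growth.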
# [2] = tested on: L-02 normal liver cell; test: MTT assay, L-02 normal cells; format: cell-based, human; conditions: Homo sapiens, 48 h
# Procedure, shortened: as §1
# [3] = tested on: HCT116 colon cancer xenograft; test: In vivo antitumor activity, colon cancer xenograft; design: species or system Nu/Nu nude mice
# [4] = tested on: L-02 normal cells; design: method as in PMID 27887843, PMID 29516624, PMID 30244610; conditions: Fig. 1; cited from earlier work
# [5] = tested on: AGS gastric cancer cell; test: MTT anti-proliferative assay, AGS; format: cell-based, human; conditions: for IC50: Homo sapiens, MTT, 48 h
# Procedure, shortened: as §1
# [6] = tested on: HCT116 colectal cancer cell; test: MTT anti-proliferative assay, HCT116; format: cell-based, human; conditions: for IC50: Homo sapiens, HCT-116, MTT, 48 h
# Procedure, shortened: as §1
# [7] = tested on: SGC-7901 early differentiation gastric cancer cell; test: MTT anti-proliferative assay, SGC-7901; format: cell-based, human; conditions: for IC50: Homo sapiens, SGC-7901, MTT, 48 h
# Procedure, shortened: as §1
# [8] = tested on: HeLa cancer cells; design: method as in PMID 27887843; conditions: Fig. 1; cited from earlier work
# [9] = tested on: Raji B lymphoblastoid cell; test: MTT anti-proliferative assay, Raji; format: cell-based, human; conditions: for IC50: Homo sapiens, Raji, MTT, 48 h, read-out: IC50 Raji
# Procedure, shortened: as §1
# [10] = biological target: T1, Human β-tubulin (TUBB) (Homo sapiens, UniProt P07437+P68363); test: Tubulin polymerization inhibition, ELISA kit, BEL-7402 cells; conditions: Bel-7402, read-out: Tubulin % inhibition
# T1 sequence (P07437 whole entry): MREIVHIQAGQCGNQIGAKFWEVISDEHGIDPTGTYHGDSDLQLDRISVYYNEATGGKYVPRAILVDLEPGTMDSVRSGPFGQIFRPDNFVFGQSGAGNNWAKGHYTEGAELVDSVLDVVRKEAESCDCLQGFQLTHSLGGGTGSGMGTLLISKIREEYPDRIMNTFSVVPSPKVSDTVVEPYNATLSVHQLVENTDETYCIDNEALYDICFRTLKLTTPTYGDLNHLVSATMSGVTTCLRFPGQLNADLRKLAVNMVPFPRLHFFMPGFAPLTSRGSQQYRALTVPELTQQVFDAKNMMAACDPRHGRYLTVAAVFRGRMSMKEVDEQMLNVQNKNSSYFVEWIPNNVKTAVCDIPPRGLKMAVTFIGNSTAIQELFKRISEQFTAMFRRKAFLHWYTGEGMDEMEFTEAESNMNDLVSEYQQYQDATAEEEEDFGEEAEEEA
# T1 sequence (P68363 whole entry): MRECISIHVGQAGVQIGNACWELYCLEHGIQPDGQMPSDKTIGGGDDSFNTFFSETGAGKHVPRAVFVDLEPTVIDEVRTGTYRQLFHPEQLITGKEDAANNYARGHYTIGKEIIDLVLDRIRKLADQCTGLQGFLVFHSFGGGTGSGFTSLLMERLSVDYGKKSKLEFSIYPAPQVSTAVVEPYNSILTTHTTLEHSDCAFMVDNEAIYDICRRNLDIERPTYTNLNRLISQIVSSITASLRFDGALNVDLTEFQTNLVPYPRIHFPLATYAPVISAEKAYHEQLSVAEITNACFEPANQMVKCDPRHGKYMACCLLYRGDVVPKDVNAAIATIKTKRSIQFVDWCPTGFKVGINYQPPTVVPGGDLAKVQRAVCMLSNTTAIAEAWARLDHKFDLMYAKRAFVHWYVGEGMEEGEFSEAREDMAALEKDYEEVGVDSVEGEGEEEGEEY
# [11] = tested on: MGC-803 late stage differentiation gastric cancer cell; test: MTT anti-proliferative assay, MGC-803; format: cell-based, human; conditions: for IC50: Homo sapiens, MGC-803, MTT, 48 h
# Procedure, shortened: as §1
# [12] = biological target: T1, Human β-tubulin (TUBB); test: Tubulin polymerization inhibition, ELISA kit, HCT-116 cells; conditions: HCT-116, read-out: Tubulin % inhibition
# [13] = tested on: MCF-10A normal breast cell; test: MTT assay, MCF-10A normal cells; format: cell-based, human; conditions: Homo sapiens, MCF-10A, 48 h
# Procedure, shortened: as §1
# [14] = tested on: BEL-7402 liver cancer cell; test: MTT anti-proliferative assay, BEL-7402; format: cell-based, human; conditions: for IC50: Homo sapiens, Bel-7402, MTT, 48 h
# Procedure, shortened: as §1
# [15] = tested on: A549 lung cancer cell; test: MTT anti-proliferative assay, A549; format: cell-based, human; conditions: for IC50: Homo sapiens, A549, MTT, 48 h
# Procedure, shortened: as §1
# [16] = tested on: MCF-7 breast cancer cell; test: MTT anti-proliferative assay, MCF-7; format: cell-based, human; conditions: for IC50: Homo sapiens, MCF7, MTT, 48 h
# Procedure, shortened: as §1
# [17] = tested on: HeLa cervical cancer cell; test: MTT anti-proliferative assay, HeLa; format: cell-based, human; conditions: for IC50: Homo sapiens, HeLa, MTT, 48 h
# Procedure, shortened: as §1
# [18] = tested on: MGC-803 cancer cells; design: method as in PMID 29516624, PMID 30244610; conditions: Fig. 1; cited from earlier work
# [19] = tested on: L-02 cells; test: Transwell cell migration assay, L-02; format: cell-based, human; conditions: 24 h
# Description: Aggressive tumors have a strong ability to proliferate and migrate, and in many cases, cell mobility affects cell proliferation. […]
# (§2) pH of the solution was adjusted to 2 with HCl solution (1 M), and the precipitate was subsequently collected by suction filtra- […]
# (§3) in DMF (40 mL) at 0°C. After 2 h reaction, the mixture was poured into 300 mL ice water and mixed completely. Then adjust […]
# (§4) mL) at 0°C, then after 15 min stirring, benzyl chloride (33 mmol) was added. The reaction mixture was moved to RT and al-lowed to continue, after which it was deemed essentially complete by TLC. Then the solution was removed and the mixture […]
# (§5) 1.6. Cell lines and cell culture
# MTT was purchased from Sigma-Aldrich Co. (St. Louis, MO, USA). […]
# (§6) the anti-proliferative activities were determined by MTT assay. […]
# (§7) respectively. […] After 12 h, the cell detached, fixed, and analyzed the cell cycle by flow cytometry using a FACS Calibur flow cytometer with Cell Quest software (Becton-Dickinson, Franklin Lakes, NJ). […]
# (§8) Apoptosis was detected using an apoptosis detecti5 on kit. […]
# (§9) Vehicle group was treated with 0.1% DMSO. Following 12 h of incubation, cells were analyzed for apoptosis as previously described method, using a FACS Calibur flow cytometer with Cell Quest software (Becton-Dickinson, Franklin Lakes, NJ). […]
# (§10) Quantitative cell migration was performed using 24-well Boyden chambers (Corning, NY, USA) as described. […]
# [20] = tested on: HepG2 hepatoma cell; test: MTT anti-proliferative assay, HepG2; format: cell-based, human; conditions: for IC50: Homo sapiens, HepG2, MTT, 48 h, read-out: IC50 HepG-2
# Procedure, shortened: as §1
# [21] = tested on: HCT116 cells; test: Apoptosis by flow cytometry (annexin V-FITC/PI), HCT116; format: cell-based, human; conditions: 0.1 μM, 12 h
# Description: as §2, §3, §4, §5
# (§11) MTT was purchased from Sigma-Aldrich Co. (St. Louis, MO, USA). The PI and Annexin V-FITC apoptosis detection kit were purchased from Invitrogen (Eugene, OR, USA). All human cell lines were used in this study. […]
# as §6, §7, §8, §9, §10
# [22] = tested on: L-02 cells; test: Apoptosis by flow cytometry (annexin V-FITC/PI), L-02; format: cell-based, human; conditions: 12 h
# Description: as §2, §3, §4, §5, §11, §6, §7, §8, §9, §10
IC50 [1],IC50 [5],IC50 [6],IC50 [7],IC50 [9],IC50 [11],IC50 [14],IC50 [15],IC50 [16],IC50 [17],IC50 [20],Structure (SMILES),IC50 [2],IC50 [4],"SI (selectivity index), IC50 (L-02)/IC50 (HCT-116) [6]",IC50 [8],"SI (selectivity index), IC50 (L-02)/IC50 (Raji) [9]",IC50 [13],IC50 [18],further results
0.18 ± 0.03 µM,0.02 ± 0.01 µM,0.03 ± 0.01 µM,> 100 µM,0.26 ± 0.02 µM,0.06 ± 0.01 µM,0.09 ± 0.02 µM,0.4 ± 0.02 µM,0.08 ± 0.01 µM,12.9 ± 0.4 µM,0.9 ± 0.03 µM,"CC(=O)O[C@H]1C(=O)[C@@]2(C)[C@H]([C@H](OC(=O)c3ccccc3)[C@]3(O)C[C@H](OC(=O)[C@H](O)[C@@H](NC(=O)c4ccccc4)c4ccccc4)C(C)=C1C3(C)C)[C@]1(OC(C)=O)CO[C@@H]1C[C@@H]2O [Taxol, Paclitaxel, reference compound]",> 100 µM,> 100 µM,> 3333^c,13 µM,> 384^c,0.18 ± 0.02 µM,0.06 ± 0.01 µM,"SI (selectivity index), IC50 (L-02)/IC50 (SU-DHL-10) [1]: > 555^c; mouse body weight ([3]; 25 mg/kg/day, xenograft mice): decreased significantly; average volume and weight of the tumor versus control group ([3]; 1g2a 12.5, 25, 50 mg/kg, taxol 25 mg/kg, from day 10): significantly lower; also recorded: inhibited the growth of tumors; SI (selectivity index), IC50 (L-02)/IC50 (AGS) [5]: > 5000^c; inhibition at 0.01 µM [10]: 15 ± 2.65%; inhibition at 0.1 µM [10]: 20.1 ± 5.34%; inhibition at 1 µM [10]: 29.6 ± 4.88%; inhibition at 0.01 µM [12]: 19.1 ± 6.27%; inhibition at 0.1 µM [12]: 36.5 ± 6.07%; inhibition at 1 µM [12]: 46 ± 4.89%; SI (selectivity index), IC50 (L-02)/IC50 (BEL-7402) [14]: > 1111^c; SI (selectivity index), IC50 (L-02)/IC50 (A549) [15]: > 227^c; SI (selectivity index), IC50 (MCF-10A)/IC50 (MCF-7) [16]: > 2.2^d; SI (selectivity index), IC50 (L-02)/IC50 (HeLa) [17]: > 7.7^c; migration of normal L-02 cells [19]: almost no migration; SI (selectivity index), IC50 (L-02)/IC50 (HepG-2) [20]: > 106^c; percentage of total apoptotic (early and late stage) HCT116 cells [21]: 26.8%; apoptosis in normal L-02 cells [22]: almost no apoptosis"
–,–,–,–,–,–,–,–,–,–,–,"COc1cc(OC)cc(/C(C#N)=C/c2ccc(Br)cc2)c1 [Compound 2, (Z)-3-(4-bromophenyl)-2-(3,5-dimethoxyphenyl)acrylonitrile]",–,> 100 µM,–,4.2 µM,–,–,–,–
> 100 µM,> 100 µM,16.7 ± 3.6 µM,> 100 µM,> 100 µM,> 100 µM,42.5 ± 5.4 µM,> 100 µM,72.4 ± 9.9 µM,> 100 µM,> 100 µM,"Oc1ccc(/C=C/c2cc(O)cc(O)c2)cc1 [Resveratrol, resveratrol, reference compound]",12.8 ± 0.2 µM,–,–,120 µM,–,> 100 µM,–,–
–,–,–,–,–,–,–,–,–,–,–,"COc1cc(/C(C#N)=C/c2ccc(C)cc2)cc(OC)c1OC [Compound 1, (Z)-3-(p-tolyl)-2-(3,4,5-trimethoxyphenyl)acrylonitrile]",–,> 100 µM,–,–,–,–,< 0.01 µM,–
7.1 ± 2.6 µM,31.8 ± 6.1 µM,35.3 ± 6.5 µM,> 100 µM,3 ± 1 µM,> 100 µM,> 100 µM,> 100 µM,53.1 ± 7.1 µM,> 100 µM,> 100 µM,N#C/C(=C\c1ccc(/C=C/C(=O)c2ccc(Br)cc2)cc1)c1ccc(OC(F)(F)F)cc1 [Compound 8d],> 100 µM,–,> 1.7,–,> 79.3,37.3 ± 4.3 µM,–,"SI (selectivity index), IC50 (L-02)/IC50 (SU-DHL-10) [1]: > 14.0; melting point: 145 to 147 °C"
> 100 µM,> 100 µM,> 100 µM,> 100 µM,> 100 µM,> 100 µM,> 100 µM,> 100 µM,> 100 µM,> 100 µM,> 100 µM,"N#C/C(=C\c1cn(Cc2ccccc2)c2ccccc12)c1ccc(OC(F)(F)F)cc1 [Compound 9, (Z)-3-(1-benzyl-1H-indol-3-yl)-2-(4-(trifluoromethoxy)phenyl)acrylonitrile]",> 100 µM,–,–,–,–,> 100 µM,–,melting point: 118 to 120 °C

Structure (SMILES),IC50 [1],IC50 [5],IC50 [6],IC50 [7],IC50 [9],IC50 [11],IC50 [14],IC50 [15],IC50 [16],IC50 [17],IC50 [20],IC50 [2],IC50 [4],"SI (selectivity index), IC50 (L-02)/IC50 (HCT-116) [6]",IC50 [8],"SI (selectivity index), IC50 (L-02)/IC50 (Raji) [9]",IC50 [13],IC50 [18],further results
"COc1ccc(/C=C\c2cc(OC)c(OC)c(OC)c2)cc1O [CA-4, combretastatin A-4, reference compound]",1.1 ± 0.1 µM,3.4 ± 0.01 µM,0.16 ± 0.001 µM,0.3 ± 0.001 µM,0.18 ± 0.001 µM,0.06 ± 0.02 µM,2 ± 0.03 µM,> 100 µM,0.2 ± 0.1 µM,> 100 µM,> 100 µM,1.1 ± 0.03 µM,1.1 ± 0.03 µM,> 6.8^c,–,> 5.8^c,3.2 ± 1.2 µM,0.06 ± 0.01 µM,"SI (selectivity index), IC50 (L-02)/IC50 (SGC-7901) [7]: > 3.6^c; SI (selectivity index), IC50 (L-02)/IC50 (MGC-803) [11]: > 18.3^c; SI (selectivity index), IC50 (MCF-10A)/IC50 (MCF-7) [16]: > 14.6^d"
